{
  "source": "patent US11033538B2",
  "about": "“Dosing regimens for the treatment of lysosomal storage diseases using pharmacological chaperones” (Amicus Therapeutics, Inc., priority 2007, dated 2021)",
  "key": {"[1]": {"system": "patients with Fabry disease", "assay": "Example 15, Gastrointestinal Symptoms Rating Scale", "format": "in vivo, human", "description": "Patient-reported outcomes were assessed using the Gastrointestinal-Symptoms-Rating-Scale (GSRS), Short Form-36v2TM and Brief-Pain-Inventory-Pain-Severity-Component."}, "GL-3 [2]": {"system": "GL-3", "assay": "Example 12, GL-3 levels in tissues of hR301Q GLA Tg/KO mice", "format": "in vivo", "details": "3-300 mg/kg/day, 4 weeks; p<0.05 vs. untreated", "description": "Tissue lysates from skin, heart, and kidney were prepared and tested for GLA activity (using 4-MUG as substrate, expressed in nmol/mg protein/hr), GLA protein (using immunoblotting of […] tissue lysate with anti-human GLA antibody) and GL-3 levels (using LC-MS/MS, expressed in mg/g of tissue weight). […] Each bar represents the mean±SEM of n=7-8 mice/group. Each lane in the Western blots represents one mouse from each group."}, "GL-3 [3]": {"system": "GL-3", "assay": "Example 11, immunohistochemical staining of GL-3 in hR301Q GLA Tg/KO mice", "format": "in vivo", "description": "Immunohistochemical staining with a monoclonal anti-GL-3 antibody (nuclei counterstained with methyl green) was also performed. […] Data shown are representative pictures from 7-8 mice/group."}, "GL-3 [4]": {"system": "GL-3", "assay": "Example 11, GL-3 levels by LC-MS/MS in hR301Q GLA Tg/KO mice, daily vs less frequent dosing", "format": "in vivo", "details": "300 mg/kg in drinking water, 4 weeks; skin, heart, kidney, plasma", "description": "Lysates were prepared from skin, heart, kidney and plasma. GL-3 levels were measured by LC-MS/MS (expressed in mg/g tissue weight or mg/mL plasma). […] Each bar represents the mean±SEM of 10-16 mice/group."}, "GL-3 [5]": {"system": "GL-3", "assay": "Example 8, GL-3 in tissues of transgenic mice expressing R301Q", "format": "in vivo", "details": "100 mg/kg ad libitum, four weeks"}, "α-GAL": {"target": "T1, α-GAL (Homo sapiens, UniProt P06280)", "T1 construct": "α-GAL activity was calculated in white blood cells (WBC); endogenous in cells; host or cells: white blood cells of healthy male volunteers", "T1 sequence (P06280 32-429)": "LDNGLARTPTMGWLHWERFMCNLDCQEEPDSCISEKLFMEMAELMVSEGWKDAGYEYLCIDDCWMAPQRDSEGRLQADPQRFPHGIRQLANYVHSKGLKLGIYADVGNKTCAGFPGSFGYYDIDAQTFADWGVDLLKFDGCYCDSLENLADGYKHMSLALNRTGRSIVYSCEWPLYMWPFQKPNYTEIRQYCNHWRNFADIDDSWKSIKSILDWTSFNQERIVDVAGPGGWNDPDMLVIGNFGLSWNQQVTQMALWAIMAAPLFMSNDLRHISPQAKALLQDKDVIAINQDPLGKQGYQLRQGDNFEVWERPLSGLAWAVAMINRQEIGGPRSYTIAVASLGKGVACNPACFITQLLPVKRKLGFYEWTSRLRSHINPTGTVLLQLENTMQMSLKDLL", "format": "in vivo", "description": "A multiple-dose Phase I trial was conducted and consisted of a total of 16 healthy volunteers divided into two groups of eight subjects. […] All subjects in one group received placebo or 50 mg twice a day for seven days, and all subjects in the other group received placebo or 150 mg twice a day for seven days. Subjects were evaluated at the beginning of the study, on Day 7 after seven days of treatment and on Day 14 after a seven day washout period.\nBlood samples (10 mL each) were collected in blood collection tubes containing EDTA and WBC extracted before dosing and at the following times thereafter: 100 hours, 150 hours, and 336 hours. Samples were treated as described above, and WBC α-GAL enzymatic activity levels were determined as described in Desnick, R. J. (ed) Enzyme therapy in genetic diseases. Vol 2. Alan R Liss, New York, pp 17-32. Statistical Analysis. Safety data including laboratory evaluations, physical exams, adverse events, ECG monitoring and vital signs assessments were summarized by treatment group and point of time of collection. Descriptive statistics (arithmetic mean, standard deviation, median, minimum and maximum) were calculated for quantitative safety data as well as for the difference to baseline. Frequency counts were compiled for classification of qualitative safety data. In addition, a shift table describing out of normal range shifts was provided for clinical laboratory results. A normal-abnormal shift table was also presented for physical exam results and ECGs."}, "Fabry patients [6]": {"system": "Fabry patients", "assay": "Example 6, cardiac analysis", "format": "in vivo, human", "description": "In addition to the biopsies described above, MRIs, electrocardiograms and echocardiograms with strain rate evaluations was performed at baseline and periodically throughout the study to assess cardiac morphology (e.g., left ventricular hyertrophy) and cardiac function (e.g., ejection fraction and conduction/rhythm abnormalities)."}, "Fabry patients [7]": {"system": "Fabry patients", "assay": "Example 6, renal function (eGFR)", "format": "in vivo, human", "details": "good responders", "description": "Renal function was evaluated using glomerular filtration rate (GFR).\nRenal function was measured using glomerular filtration rate (GFR) (MDRD equation was used to estimate GFR using serum creatinine adjusted for age, gender and race). Approximately half of all Fabry patients have an abnormally low GFR (<90 ml/min/1.73 m^2). […] As shown in FIG. 17A-B, the good responders maintained a mean eGFR within the normal eGFR range of 90-120 ml/min/1.73 m^2 during the entire treatment procedure (FIG. 17A), while the predicted mean eGFR level of untreated individual is projected to continue declining below 90 ml/min/1.73 m^2 (FIG. 17B)."}, "[8]": {"details": "All Patients, OLE DGJ treatment, (95% CI)"}, "[9]": {"details": "Patients with Symptoms at BL, OLE DGJ treatment, (95% CI)"}, "[10]": {"details": "Patients with Symptoms at BL, Stage 1"}},
  "note": "Read-outs that look alike come from different tables or passages of the source. Marks after values point to notes of the source that are not given here.",
  "data": [
    {"smiles": "OC[C@H]1NC[C@H](O)[C@@H](O)[C@H]1O", "note": "[DGJ, (2R,3S,4R,5S)-2-(hydroxymethyl) piperdine-3,4,5-triol]", "values": [
      {"measurement": "GSRS Diarrhea, change from Baseline to Month 6", "setting": "[1]; All Patients, ITT-suitable, Stage 1 double-blind, p = 0.03", "result": "−0.3*^2"},
      {"measurement": "GSRS Abdominal Pain, change to Month 24", "setting": "[1]; [8]", "result": "−0.2 (−0.5, +0.1)"},
      {"measurement": "GSRS Constipation, change to Month 24", "setting": "[1]; [8]", "result": "−0.4 (−0.7, +0.0)*^5"},
      {"measurement": "GSRS Diarrhea, change from Baseline (DGJ) or Month 6 (Placebo) to Month 24", "setting": "[1]; [8]", "result": "−0.5 (−0.9, −0.1)*^4"},
      {"measurement": "GSRS Indigestion, change to Month 24", "setting": "[1]; [8]", "result": "−0.4 (−0.7, −0.04)*^4"},
      {"measurement": "GSRS Reflux, change to Month 24", "setting": "[1]; [8]", "result": "−0.2 (−0.5, 0.2)"},
      {"measurement": "GSRS Abdominal Pain, change from Baseline to Month 6", "setting": "[1]; All Patients, Stage 1", "result": 0.0},
      {"measurement": "GSRS Constipation, change from Baseline to Month 6", "setting": "[1]; All Patients, Stage 1", "result": "+0.1"},
      {"measurement": "GSRS Indigestion, change from Baseline to Month 6", "setting": "[1]; All Patients, Stage 1", "result": "−0.1"},
      {"measurement": "GSRS Reflux, change from Baseline to Month 6", "setting": "[1]; All Patients, Stage 1", "result": "−0.1"},
      {"measurement": "GSRS Abdominal Pain, change to Month 24", "setting": "[1]; [9]", "result": "−0.2 (−0.6, 0.1)"},
      {"measurement": "GSRS Constipation, change to Month 24", "setting": "[1]; [9]", "result": "−0.5 (−1.1, +0.0)*^5"},
      {"measurement": "GSRS Diarrhea, change to Month 24", "setting": "[1]; [9]", "result": "−1.0 (−1.5, −0.4)*^4"},
      {"measurement": "GSRS Indigestion, change to Month 24", "setting": "[1]; [9]", "result": "−0.5 (−0.8, −0.06)*^4"},
      {"measurement": "GSRS Reflux, change to Month 24", "setting": "[1]; [9]", "result": "−0.6 (−1.5, 0.2)"},
      {"measurement": "GSRS Abdominal Pain, change from Baseline to Month 6", "setting": "[1]; [10]", "result": "−0.1"},
      {"measurement": "GSRS Constipation, change from Baseline to Month 6", "setting": "[1]; [10]", "result": "+0.2"},
      {"measurement": "GSRS Diarrhea, change from Baseline to Month 6", "setting": "[1]; [10]", "result": "−0.6"},
      {"measurement": "GSRS Indigestion, change from Baseline to Month 6", "setting": "[1]; [10]", "result": "−0.2"},
      {"measurement": "GSRS Reflux, change from Baseline to Month 6", "setting": "[1]; Patients with Symptoms at BL, Stage 1, p = 0.047", "result": "−0.6*^3"},
      {"measurement": "GL-3 levels in skin, heart, kidney", "setting": "GL-3 [2]", "result": "significant reduction in GL-3 levels"},
      {"measurement": "GL-3 signal, less frequent vs daily dosing", "setting": "GL-3 [3]; 300 mg/kg, 4 weeks", "result": "greater GL-3 reduction was seen in each tissue"},
      {"measurement": "GL-3 signal by immunohistochemistry", "setting": "GL-3 [3]; both daily and less frequent treatment, skin, heart, kidney", "result": "reduced the amount and intensity of GL-3 signal in each tissue"},
      {"measurement": "GL-3 levels by LC-MS/MS, less frequent (4 days on/3 days off) vs daily dosing", "setting": "GL-3 [4]", "result": "greater reduction in GL-3 levels"},
      {"measurement": "GL-3 aggregates, histology of renal tube and cardiac sections", "setting": "GL-3 [5]", "result": "presence of GL-3 aggregates was reduced"},
      {"measurement": "concentration of GL-3 in the sampled tissues", "setting": "GL-3 [5]", "result": "reduced"},
      {"measurement": "inhibition of WBC α-GAL enzymatic activity", "setting": "α-GAL; 50 mg b.i.d. or 150 mg b.i.d.", "result": "did not inhibit WBC α-GAL enzymatic activity"},
      {"measurement": "WBC α-GAL enzymatic activity", "setting": "α-GAL; 50 mg b.i.d., 100 hours", "result": 120, "unit": "% pre-dose levels"},
      {"measurement": "WBC α-GAL enzymatic activity", "setting": "α-GAL; 50 mg b.i.d., 150 hours", "result": 130, "unit": "% pre-dose levels"},
      {"measurement": "WBC α-GAL enzymatic activity", "setting": "α-GAL; 50 mg b.i.d., 336 hours", "result": 145, "unit": "% pre-dose levels"},
      {"measurement": "WBC α-GAL enzymatic activity", "setting": "α-GAL; 150 mg b.i.d., 100 hours", "result": 150, "unit": "% pre-dose levels"},
      {"measurement": "WBC α-GAL enzymatic activity", "setting": "α-GAL; 150 mg b.i.d., 150 hours", "result": 185, "unit": "% pre-dose levels"},
      {"measurement": "WBC α-GAL enzymatic activity", "setting": "α-GAL; 150 mg b.i.d., 336 hours", "result": 185, "unit": "% pre-dose levels"},
      {"measurement": "GLA levels in white blood cell lysates", "setting": "α-GAL; 50 and 150 mg twice daily for 7 days", "result": "increased GLA levels"},
      {"measurement": "increase in levels of α-GAL in white blood cells", "setting": "α-GAL; highest dose level (150 mg twice a day for seven days), healthy volunteers", "result": "~2", "unit": "fold"},
      {"measurement": "persistence of the α-GAL increase", "setting": "α-GAL; highest dose level, after the last dose", "result": "maintained for at least seven days after the last dose"},
      {"measurement": "left ventricle mass", "setting": "Fabry patients [6]; 2 good responders with abnormally high left ventricle mass, 48 weeks", "result": "no change in left ventricle mass"},
      {"measurement": "decrease in left ventricle mass", "setting": "Fabry patients [6]; one good responder with abnormally high left ventricle mass, 12 weeks", "result": 8, "unit": "%"},
      {"measurement": "ejection fraction following treatment", "setting": "Fabry patients [6]; two of three good responders with abnormal ejection fraction before treatment", "result": "> 55", "unit": "%"},
      {"measurement": "mean eGFR maintained during the entire treatment", "setting": "Fabry patients [7]", "result": "90-120 ml/min/1.73 m^2"}
    ]}
  ]
}
